Source: patent publication US10414763B2 (CANCER RESEARCH TECHNOLOGY LIMITED, priority 2014, dated 2019)

Molecular target: T1, full-length human PKCι (Homo sapiens, UniProt P41743)
T1 construct: Recombinant, full-length human PKCι expressed in Sf21 insect cells is also commercially available; purchased EMD Millipore; host or cells: Sf21 insect cells (baculovirus)
T1 sequence (P41743 1-596): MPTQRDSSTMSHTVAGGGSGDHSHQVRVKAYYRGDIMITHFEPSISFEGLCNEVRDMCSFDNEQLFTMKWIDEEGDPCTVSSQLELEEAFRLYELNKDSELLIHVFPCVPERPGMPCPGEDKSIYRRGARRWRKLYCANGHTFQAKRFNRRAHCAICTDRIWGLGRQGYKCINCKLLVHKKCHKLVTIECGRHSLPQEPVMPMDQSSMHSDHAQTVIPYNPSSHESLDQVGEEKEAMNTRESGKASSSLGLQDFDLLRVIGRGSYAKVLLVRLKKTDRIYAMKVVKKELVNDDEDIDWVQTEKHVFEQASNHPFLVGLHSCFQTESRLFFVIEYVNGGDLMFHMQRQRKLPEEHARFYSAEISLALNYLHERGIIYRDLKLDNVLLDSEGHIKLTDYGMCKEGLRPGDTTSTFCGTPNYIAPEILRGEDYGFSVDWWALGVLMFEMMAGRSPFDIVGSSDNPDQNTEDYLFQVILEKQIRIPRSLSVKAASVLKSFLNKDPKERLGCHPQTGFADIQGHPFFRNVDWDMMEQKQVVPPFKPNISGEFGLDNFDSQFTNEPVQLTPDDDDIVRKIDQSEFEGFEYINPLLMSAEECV
Assay: PKCι IC50 IMAP fluorescence polarisation assay, full-length enzyme, 150 μM ATP
Type: biochemical
Conditions: read-out: IC50 in IMAP assay against full length PKCi at 150 μM ATP
Procedure, shortened: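 IMAP fluorescence polarisation kinase assay: 15 pM baculovirus-expressed human PKCiota with 100 nM FAM-pseudosubstrate peptide and 150 μM ATP, 1 h at 25 °C. IMAP detection reagent then 2 h at 25 °C before FP measurement. Inhibition referenced to no-compound and no-enzyme controls for IC50 fitting.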

NC1CCC(Nc2nc(-c3ccnc4[nH]c5ccccc5c34)nc3cncc(C4CCC4)c23)C1 (centres unmarked) [Example 60, N-[5-Cyclobutyl-2-(9H-pyrido[2,3-b]indol-4-yl)-pyrido[3,4-d]pyrimidin-4-yl]-cyclopentane-1,3-diamine] and CN(c1nc(-c2ccnc3[nH]c4ccccc4c23)nc2cncc(C3CCC3)c12)C1CCC(N)C1 (centres unmarked) [Example 78, N-[5-Cyclobutyl-2-(9H-pyrido[2,3-b]indol-4-yl)-pyrido[3,4-d]pyrimidin-4-yl]-N-methyl-cyclopentane-1,3-diamine] cannot be ordered by IC50: < 0.1 µM for the first, < 0.1 µM for the second.

CN(c1nc(-c2ccnc3[nH]c(-c4cccnc4)cc23)nc2cncc(C3CC3)c12)C1CCNCC1(C)C (centres unmarked) [Example 61, [5-Cyclopropyl-2-(2-pyridin-3-yl-1H-pyrrolo[2,3-b]pyridin-4-yl)-pyrido[3,4-d]pyrimidin-4-yl]-(3,3-dimethyl-piperidin-4-yl)-methyl-amine] and CN(c1nc(-c2ccnc3[nH]c(C(=O)NC4CCCCC4)cc23)nc2cncc(C3CC3)c12)C1CCNCC1(C)C (centres unmarked) [Example 66, 4-{5-Cyclopropyl-4-[(3,3-dimethyl-piperidin-4-yl)-methyl-amino]-pyrido[3,4-d]pyrimidin-2-yl}-1H-pyrrolo[2,3-b]pyridine-2-carboxylic acid cyclohexylamide] cannot be ordered by IC50: < 0.1 µM for the first, < 0.1 µM for the second.

O=C(NC1CCCCC1)c1cc2c(-c3nc(N4CCNCC4)c4c(C5CC5)cncc4n3)ccnc2[nH]1 [Example 62, 4-(5-Cyclopropyl-4-piperazin-1-yl-pyrido[3,4-d]pyrimidin-2-yl)-1H-pyrrolo[2,3-b]pyridine-2-carboxylic acid cyclohexylamide] and CNC(=O)c1cc2c(-c3nc(N4CCNCC4)c4c(C5CC5)cncc4n3)ccnc2[nH]1 [Example 79, 4-(5-Cyclopropyl-4-piperazin-1-yl-pyrido[3,4-d]pyrimidin-2-yl)-1H-pyrrolo[2,3-b]pyridine-2-carboxylic acid methylamide] cannot be ordered by IC50: < 0.1 µM for the first, < 0.1 µM for the second.

FC(F)(F)c1cc2c(-c3nc(N4CCCC5NCCCC54)c4c(C5CC5)cncc4n3)ccnc2[nH]1 (centres unmarked) [Example 64, 5-Cyclopropyl-4-(octahydro-[1,5]naphthyridin-1-yl)-2-(2-trifluoromethyl-1H-pyrrolo[2,3-b]pyridin-4-yl)-pyrido[3,4-d]pyrimidine] and OC1CNCCCC1Nc1nc(-c2ccnc3[nH]c4ccccc4c23)nc2cncc(C3CCC3)c12 (centres unmarked) [Example 73, 4-[5-Cyclobutyl-2-(9H-pyrido[2,3-b]indol-4-yl)-pyrido[3,4-d]pyrimidin-4-ylamino]-azepan-3-ol] cannot be ordered by IC50: < 0.1 µM for the first, < 0.1 µM for the second.

First: O=S(=O)(Nc1cc(-c2nc(N3CCNCC3)c3c(C4CC4)cncc3n2)ccn1)c1ccc(F)cc1 [Example 65, N-[4-(5-Cyclopropyl-4-piperazin-1-yl-pyrido[3,4-d]pyrimidin-2-yl)-pyridin-2-yl]-4-fluoro-benzenesulfonamide]
Second: CC1(C)CNCCC1Nc1nc(-c2ccnc(Nc3ccc(F)cn3)c2)nc2cncc(C3CCC3)c12 (centres unmarked) [Example 67, {5-Cyclobutyl-2-[2-(5-fluoro-pyridin-2-ylamino)-pyridin-4-yl]-pyrido[3,4-d]pyrimidin-4-yl}-(3,3-dimethyl-piperidin-4-yl)-amine]
The IC50 of the first is higher: 0.1 to 1 µM for the first, < 0.1 µM for the second.

CC1(C)CNCCC1Nc1nc(-c2ccnc(Nc3ncc(F)cc3F)c2)nc2cncc(C3CCC3)c12 (centres unmarked) [Example 68, {5-Cyclobutyl-2-[2-(3,5-difluoro-pyridin-2-ylamino)-pyridin-4-yl]-pyrido[3,4-d]pyrimidin-4-yl}-(3,3-dimethyl-piperidin-4-yl)-amine] and CC1(C)CNCCC1Nc1nc(-c2ccnc(Nc3ncc(Cl)cc3F)c2)nc2cncc(C3CCC3)c12 (centres unmarked) [Example 88, {2-[2-(5-Chloro-3-fluoro-pyridin-2-ylamino)-pyridin-4-yl]-5-cyclobutyl-pyrido[3,4-d]pyrimidin-4-yl}-(3,3-dimethyl-piperidin-4-yl)-amine] cannot be ordered by IC50: < 0.1 µM for the first, < 0.1 µM for the second.

CC1(C)CNCCC1Nc1nc(-c2ccnc(Nc3ncccc3F)c2)nc2cncc(C3CCC3)c12 (centres unmarked) [Example 70, {5-Cyclobutyl-2-[2-(3-fluoro-pyridin-2-ylamino)-pyridin-4-yl]-pyrido[3,4-d]pyrimidin-4-yl}-(3,3-dimethyl-piperidin-4-yl)-amine] and CC1(C)CNCCC1Nc1nc(-c2ccnc(Nc3cccnc3F)c2)nc2cncc(C3CCC3)c12 (centres unmarked) [Example 92, {5-Cyclobutyl-2-[2-(2-fluoro-pyridin-3-ylamino)-pyridin-4-yl]-pyrido[3,4-d]pyrimidin-4-yl}-(3,3-dimethyl-piperidin-4-yl)-amine] cannot be ordered by IC50: < 0.1 µM for the first, < 0.1 µM for the second.

CC1(C)CNCCC1Nc1nc(-c2ccnc(Nc3nc(F)c(F)cc3F)c2)nc2cncc(C3CCC3)c12 (centres unmarked) [Example 71, {5-Cyclobutyl-2-[2-(3,5,6-trifluoro-pyridin-2-ylamino)-pyridin-4-yl]-pyrido[3,4-d]pyrimidin-4-yl}-(3,3-dimethyl-piperidin-4-yl)-amine] and CC1(C)CNCCC1Nc1nc(-c2ccnc(Nc3nc(F)cc(F)c3F)c2)nc2cncc(C3CCC3)c12 (centres unmarked) [Example 87, {5-Cyclobutyl-2-[2-(3,4,6-trifluoro-pyridin-2-ylamino)-pyridin-4-yl]-pyrido[3,4-d]pyrimidin-4-yl}-(3,3-dimethyl-piperidin-4-yl)-amine] cannot be ordered by IC50: < 0.1 µM for the first, < 0.1 µM for the second.

Compared with CC(C)(C)c1csc(Nc2cc(-c3nc(NC4CCNCC4(C)C)c4c(C5CCC5)cncc4n3)ccn2)n1 (centres unmarked) [Example 72, {2-[2-(4-tert-Butyl-thiazol-2-ylamino)-pyridin-4-yl]-5-cyclobutyl-pyrido[3,4-d]pyrimidin-4-yl}-(3,3-dimethyl-piperidin-4-yl)-amine], CC1(C)CNCCC1Nc1nc(-c2ccnc(Nc3ccccc3)c2)nc2cncc(C3CCC3)c12 (centres unmarked) [Example 91, [5-Cyclobutyl-2-(2-phenylamino-pyridin-4-yl)-pyrido[3,4-d]pyrimidin-4-yl]-(3,3-dimethyl-piperidin-4-yl)-amine] is lower in IC50: 0.1 to 1 µM for the first, < 0.1 µM for the second.

CN(c1nc(-c2ccnc3[nH]c4ccccc4c23)nc2cncc(C3CCC3)c12)C1CC(N)C1 (centres unmarked) [Example 74, N-[5-Cyclobutyl-2-(9H-pyrido[2,3-b]indol-4-yl)-pyrido[3,4-d]pyrimidin-4-yl]-N-methyl-cyclobutane-1,3-diamine] and CC1(C)CNCCC1Nc1nc(-c2ccnc(Nc3nccc4ccccc34)c2)nc2cncc(C3CCC3)c12 (centres unmarked) [Example 89, {5-Cyclobutyl-2-[2-(isoquinolin-1-ylamino)-pyridin-4-yl]-pyrido[3,4-d]pyrimidin-4-yl}-(3,3-dimethyl-piperidin-4-yl)-amine] cannot be ordered by IC50: < 0.1 µM for the first, < 0.1 µM for the second.

CN(c1nc(-c2ccnc3[nH]c4ccccc4c23)nc2cncc(C3CCC3)c12)C1CC(N)C1 (centres unmarked) [Example 75, N-[5-Cyclobutyl-2-(9H-pyrido[2,3-b]indol-4-yl)-pyrido[3,4-d]pyrimidin-4-yl]-N-methyl-cyclobutane-1,3-diamine] and CC1(C)CNCCC1Nc1nc(-c2ccnc(Nc3ccc4ccccc4n3)c2)nc2cncc(C3CCC3)c12 (centres unmarked) [Example 86, {5-Cyclobutyl-2-[2-(quinolin-2-ylamino)-pyridin-4-yl]-pyrido[3,4-d]pyrimidin-4-yl}-(3,3-dimethyl-piperidin-4-yl)-amine] cannot be ordered by IC50: < 0.1 µM for the first, < 0.1 µM for the second.

With CC1(C)CNCCC1Nc1nc(-c2ccnc(Nc3ccc(OC(F)(F)F)cc3)c2)nc2cncc(C3CCC3)c12 (centres unmarked) [Example 90, {5-Cyclobutyl-2-[2-(4-trifluoromethoxy-phenylamino)-pyridin-4-yl]-pyrido[3,4-d]pyrimidin-4-yl}-(3,3-dimethyl-piperidin-4-yl)-amine] the IC50 was 0.1 to 1 µM.
